Calls of active or inactive are those of the source. No cut-off for these calls is given here.
Key:
[1] = target: T1, Thymidylate synthase (Homo sapiens, UniProt P04818); test: Competitive inhibition of thymidylate synthetase (unknown origin) in presence of 5,10-methylenetetrahydrofolate
Target sequence in this assay (P04818 whole entry): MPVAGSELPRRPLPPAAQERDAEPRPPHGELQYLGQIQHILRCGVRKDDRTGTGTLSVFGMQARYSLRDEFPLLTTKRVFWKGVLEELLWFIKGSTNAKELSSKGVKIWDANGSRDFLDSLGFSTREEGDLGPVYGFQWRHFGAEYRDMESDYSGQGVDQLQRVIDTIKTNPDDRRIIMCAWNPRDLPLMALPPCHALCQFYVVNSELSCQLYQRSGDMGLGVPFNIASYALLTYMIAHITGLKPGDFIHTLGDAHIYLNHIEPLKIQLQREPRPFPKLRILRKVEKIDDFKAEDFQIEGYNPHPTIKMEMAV

[2] = target: T1, Thymidylate synthase; test: Inhibition of thymidylate synthetase (unknown origin) assessed as decrease of first order enzyme activity in absence of 5,10-methylenetetrahydrofolate
Target sequence in this assay (P04818 2-313 limits assumed): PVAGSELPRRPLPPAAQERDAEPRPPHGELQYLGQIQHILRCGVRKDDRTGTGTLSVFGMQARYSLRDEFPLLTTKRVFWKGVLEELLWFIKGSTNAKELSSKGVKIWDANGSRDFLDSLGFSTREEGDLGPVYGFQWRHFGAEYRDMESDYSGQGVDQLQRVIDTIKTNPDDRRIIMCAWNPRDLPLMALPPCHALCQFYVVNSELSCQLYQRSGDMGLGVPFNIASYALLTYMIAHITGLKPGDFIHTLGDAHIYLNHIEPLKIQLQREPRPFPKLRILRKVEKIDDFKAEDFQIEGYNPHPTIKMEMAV

[3] = target: T1, Thymidylate synthase; test: Inhibition of thymidylate synthetase (unknown origin) assessed as decrease of first order enzyme activity in absence of 5,10-methylenetetrahydrofolate and presence of dUMP
Target sequence in this assay (P04818 2-313 limits assumed): as above

[4] = target: T1, Thymidylate synthase; test: Binding affinity to thymidylate synthetase (unknown origin)
Target sequence in this assay (P04818 whole entry): as the sequence (P04818 whole entry) above

O=c1[nH]c(=O)n([C@H]2C[C@H](O)[C@@H](COP(=O)(O)O)O2)cc1/C=C/C(F)(F)F
Ki [1]: 8.6 µM | inhibition [2]: Active | inhibition [3]: inactive | Kd [4]: 25 µM
